Assay results: US8183293B2, “Phenyl acetic acid derivatives” (Amgen Inc., priority 2007, dated 2012)
“Also recorded” adds a separate entry of the source.

Columns and labels:
[1] = Hygroscopicity of polymorph; type: physicochemical
[2] = In vitro covalent binding to protein, human liver microsomes; type: in vitro ADME; details: in the presence of NADPH cofactor
Method: (§1) The propensity of AMG 009 metabolism to generate reactive metabolites was conducted in studies to evaluate in vitro covalent binding to protein by standardized methods (Day, et al., J. Pharmacol. Toxicol. Methods., 52, 278-285 (2005)).

[3] = test system: antigen-induced airway response; assay: Sheep airway response model of asthma; type: in vivo
Source text: (§2) The sheep and guinea pig models employed herein are disclosed in publications such as Abraham, W. M., Sheep Models of Allergic Bronchoconstriction)(in Allergy and Allergic Disease 2:1045 1977); Isenberg-Feig, H et al., Animal Models of Allergic Asthma (in Current Allergy and Asthma Reports 2003, 3:70-78); Abraham, W. M., et al. Am J Respir Crit. Care Med vol. 159. pp. 1205-1214, 1999; Abraham, W. M. et al, Am J Respir Crit. Care Med vol. 169. pp. 97-104, 2004; and Jones, T. R. et al Can. J. Physiol. Pharmacol. 73: 191-201 1995.

[4] = In vitro covalent binding to protein, rat liver microsomes; type: in vitro ADME; details: in the presence of NADPH cofactor
Method: as §1

[5] = test system: PGD2-induced airway constriction; assay: Guinea pig model of airway constriction; type: in vivo; details: animals pretreated with aerosolized PGD2 at doses as high as 0.625 mg/mL, FIG. 5
Source text: as §2, with “FIGS. 6A and 6B are graphs comparing the efficacy of AMG 009 (FIG. 6A) and Example Compound 14 (FIG. 6A) in the Guinea Pig Model of airway constriction. The” for “The”

SMILES: CC(C)(C)NC(=O)c1ccc(Oc2cc(F)c(CC(=O)O)cc2Cl)c(NS(=O)(=O)c2ccc(C3CC3)cc2Cl)c1 [Form II, 2-(4-(4-(tert-butylcarbamoyl)-2-(2-chloro-4-cyclopropylphenylsulfonamido)phenoxy)-5-chloro-2-fluorophenyl)acetic acid]
- hygroscopicity [1]: non hygroscopic

SMILES: CCCCNC(=O)c1ccc(Oc2ccc(CC(=O)O)cc2OC)c(NS(=O)(=O)c2ccc(Cl)cc2Cl)c1 [AMG 009]
- covalent binding of radioactive equivalents to protein [2]: ~50 pmol equivalent/mg protein
- antigen-induced late airway response ([3]; 7.5 mg/kg (multi-dose), FIG. 3A): inhibits
- antigen-induced development of airway hyperreactivity to carbochol ([3]; 7.5 mg/kg (multi-dose), FIG. 3B): inhibits
- antigen-induced late airway response ([3]; 7.5 mg/kg (single dose), FIG. 1A): inhibits
- antigen-induced development of airway hyperreactivity to carbochol ([3]; 7.5 mg/kg (single dose), FIG. 1B): inhibits
- antigen-induced late airway response ([3]; 15 mg/kg (single dose), FIG. 2A): inhibits
- antigen-induced development of airway hyperreactivity to carbochol ([3]; 15 mg/kg (single dose), FIG. 2B): inhibits
- allergen-induced recruitment of inflammatory cells to the lung (BAL) ([3]; sheep airway response model): blocked; also recorded: effective in blocking
- antigen-induced development of airway hyper-reactivity (AHR) to carbachol ([3]; sheep airway response model): blocks
- antigen-induced late airway response (LAR) ([3]; sheep airway response model): inhibits
- covalent binding of radioactive equivalents to protein [4]: ~50 pmol equivalent/mg protein

SMILES: CC(C)(C)NC(=O)c1ccc(Oc2cc(F)c(CC(=O)O)cc2Cl)c(NS(=O)(=O)c2ccc(C3CC3)cc2Cl)c1 [Example Compound 14, 2-(4-(4-(tert-butylcarbamoyl)-2-(2-chloro-4-cyclopropylphenylsulfonamido)phenoxy)-5-chloro-2-fluorophenyl)acetic acid]
- response in Guinea Pig Model [5]: dose-dependent response
